From ChEMBL document CHEMBL1151010, “A case study of combinatorial libraries: Endothelin receptor antagonist hexapeptides” (Bioorg Med Chem Lett, 1995)

Key:
[1] = target: T1, Endothelin-1 receptor (Sus scrofa) (UniProt Q29010); experiment: (§1) Inhibition of endothelin (ET-A) binding to porcine heart membranes; design: concentration or dose not given beside the values; conditions: Membrane, concentration not given here
T1 sequence (whole entry): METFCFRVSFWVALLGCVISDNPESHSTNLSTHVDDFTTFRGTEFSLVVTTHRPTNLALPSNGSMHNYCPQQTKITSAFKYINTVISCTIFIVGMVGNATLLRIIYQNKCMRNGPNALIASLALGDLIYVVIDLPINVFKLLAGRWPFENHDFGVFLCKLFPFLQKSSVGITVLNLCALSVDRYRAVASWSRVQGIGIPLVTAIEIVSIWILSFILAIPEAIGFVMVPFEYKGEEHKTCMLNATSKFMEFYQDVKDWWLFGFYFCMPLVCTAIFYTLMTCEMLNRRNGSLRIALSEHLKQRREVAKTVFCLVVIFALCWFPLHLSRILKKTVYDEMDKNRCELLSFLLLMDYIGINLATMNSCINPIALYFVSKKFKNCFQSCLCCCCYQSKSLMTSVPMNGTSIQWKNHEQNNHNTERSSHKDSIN

Endothelin-1 receptor = target: T2, Endothelin-1 receptor (Sus scrofa, UniProt Q29010); experiment: as §1; design: species or system Membrane
T2 sequence (Q29010 whole entry): T1 sequence (whole entry)

[2] = target: T1, Endothelin-1 receptor (Sus scrofa); experiment: as §1; design: concentration or dose not given beside the values; conditions: Membrane, concentration not given here; remark: listed apart in the source
[3] = target: T1, Endothelin-1 receptor (Sus scrofa); experiment: Antagonist activity against ET-A from porcine heart membranes; assay type: functional, tissue-based; conditions: concentration not given here

SMILES | inhibition [1] [%] | IC50 (Endothelin-1 receptor) [nM] | inhibition [2] [%] | inhibition [3] [%]
CC[C@H](C)[C@H](NC(=O)CNC(=O)[C@H](CCCN=C(N)N)NC(=O)[C@H](CC(C)C)NC(=O)[C@H](NC(C)=O)C1c2ccccc2CCc2ccccc21)C(=O)N[C@@H](Cc1c[nH]c2ccccc12)C(=O)O | 27 | – | – | –
CC[C@H](C)[C@H](NC(=O)CNC(=O)[C@H](CCSC)NC(=O)[C@H](CC(C)C)NC(=O)[C@H](NC(C)=O)C1c2ccccc2CCc2ccccc21)C(=O)N[C@@H](Cc1c[nH]c2ccccc12)C(=O)O | 61 | – | – | –
CC(=O)N[C@@H](C(=O)N[C@@H](CC(C)C)C(=O)N[C@@H](CO)C(=O)NCC(=O)N[C@H](C(=O)N[C@@H](Cc1c[nH]c2ccccc12)C(=O)O)C(C)C)C1c2ccccc2CCc2ccccc21 | 65 | – | – | –
CC[C@H](C)[C@H](NC(=O)[C@H](CCSC)NC(=O)[C@H](CC(=O)O)NC(=O)[C@H](CC(C)C)NC(=O)[C@H](NC(C)=O)C1c2ccccc2CCc2ccccc21)C(=O)N[C@@H](Cc1c[nH]c2ccccc12)C(=O)O | – | 40 | 26 | –
CC[C@H](C)[C@H](NC(=O)[C@@H](NC(=O)[C@H](CC(=O)O)NC(=O)[C@H](CC(C)C)NC(=O)[C@H](NC(C)=O)C1c2ccccc2CCc2ccccc21)C(C)C)C(=O)N[C@@H](Cc1c[nH]c2ccccc12)C(=O)O | – | 5 | 70 | –
CC[C@H](C)[C@H](NC(=O)[C@H](CC(N)=O)NC(=O)[C@H](CC(=O)O)NC(=O)[C@H](CC(C)C)NC(=O)[C@H](NC(C)=O)C1c2ccccc2CCc2ccccc21)C(=O)N[C@@H](Cc1c[nH]c2ccccc12)C(=O)O | – | 40 | 41 | –
CC[C@H](C)[C@H](NC(=O)CNC(=O)[C@H](CCCCN)NC(=O)[C@H](CC(C)C)NC(=O)[C@H](NC(C)=O)C1c2ccccc2CCc2ccccc21)C(=O)N[C@@H](Cc1c[nH]c2ccccc12)C(=O)O | 16 | – | – | –
CC[C@H](C)[C@H](NC(=O)CNC(=O)[C@H](Cc1c[nH]cn1)NC(=O)[C@H](CC(C)C)NC(=O)[C@H](NC(C)=O)C1c2ccccc2CCc2ccccc21)C(=O)N[C@@H](Cc1c[nH]c2ccccc12)C(=O)O | 56 | – | – | –
CC[C@H](C)[C@H](NC(=O)[C@@H](NC(=O)[C@H](CC(=O)O)NC(=O)[C@H](CCC(N)=O)NC(=O)[C@H](NC(C)=O)C1c2ccccc2CCc2ccccc21)C1CCCCC1)C(=O)N[C@@H](Cc1c[nH]c2ccccc12)C(=O)O | – | – | – | 49
CC[C@H](C)[C@H](NC(=O)[C@@H](NC(=O)[C@H](CC(=O)O)NC(=O)[C@H](CC(C)C)NC(=O)[C@H](NC(C)=O)C1c2ccccc2CCc2ccccc21)C1CCCCC1)C(=O)N[C@@H](Cc1c[nH]c2ccccc12)C(=O)O | – | – | – | 47
CC[C@H](C)[C@H](NC(=O)[C@H](CO)NC(=O)[C@H](CC(=O)O)NC(=O)[C@H](CC(C)C)NC(=O)[C@H](NC(C)=O)C1c2ccccc2CCc2ccccc21)C(=O)N[C@@H](Cc1c[nH]c2ccccc12)C(=O)O | – | – | 0 | –
CC[C@H](C)[C@H](NC(=O)[C@H](C)NC(=O)[C@H](CC(=O)O)NC(=O)[C@H](CC(C)C)NC(=O)[C@H](NC(C)=O)C1c2ccccc2CCc2ccccc21)C(=O)N[C@@H](Cc1c[nH]c2ccccc12)C(=O)O | – | 30 | 47 | –
CC[C@H](C)[C@H](NC(=O)CNC(=O)[C@H](Cc1ccccc1)NC(=O)[C@H](CC(C)C)NC(=O)[C@H](NC(C)=O)C1c2ccccc2CCc2ccccc21)C(=O)N[C@@H](Cc1c[nH]c2ccccc12)C(=O)O | 42 | – | – | –

Next, values leading:

inhibition [1] [%] | IC50 (Endothelin-1 receptor) [nM] | inhibition [2] [%] | inhibition [3] [%] | SMILES
66 | 180 | – | – | CC[C@H](C)[C@H](NC(=O)CNC(=O)[C@H](CCC(N)=O)NC(=O)[C@H](CC(C)C)NC(=O)[C@H](NC(C)=O)C1c2ccccc2CCc2ccccc21)C(=O)N[C@@H](Cc1c[nH]c2ccccc12)C(=O)O
41 | 150 | – | – | CC[C@H](C)[C@H](NC(=O)CNC(=O)CNC(=O)[C@H](CC(C)C)NC(=O)[C@H](NC(C)=O)C1c2ccccc2CCc2ccccc21)C(=O)N[C@@H](Cc1c[nH]c2ccccc12)C(=O)O
34 | – | – | – | CC[C@H](C)[C@H](NC(=O)CNC(=O)[C@H](CC(C)C)NC(=O)[C@H](CC(C)C)NC(=O)[C@H](NC(C)=O)C1c2ccccc2CCc2ccccc21)C(=O)N[C@@H](Cc1c[nH]c2ccccc12)C(=O)O
74 | 120 | – | – | CC[C@H](C)[C@H](NC(=O)CNC(=O)[C@H](CC(N)=O)NC(=O)[C@H](CC(C)C)NC(=O)[C@H](NC(C)=O)C1c2ccccc2CCc2ccccc21)C(=O)N[C@@H](Cc1c[nH]c2ccccc12)C(=O)O
22 | – | – | – | CC[C@@H](C)[C@H](NC(=O)[C@H](CC(C)C)NC(=O)[C@H](NC(C)=O)C1c2ccccc2CCc2ccccc21)C(=O)NCC(=O)N[C@H](C(=O)N[C@@H](Cc1c[nH]c2ccccc12)C(=O)O)[C@@H](C)CC
93 | 18 | 41 | – | CC[C@H](C)[C@H](NC(=O)CNC(=O)[C@H](CC(=O)O)NC(=O)[C@H](CC(C)C)NC(=O)[C@H](NC(C)=O)C1c2ccccc2CCc2ccccc21)C(=O)N[C@@H](Cc1c[nH]c2ccccc12)C(=O)O
7 | – | – | – | CC[C@H](C)[C@H](NC(=O)CNC(=O)[C@@H]1CCCN1C(=O)[C@H](CC(C)C)NC(=O)[C@H](NC(C)=O)C1c2ccccc2CCc2ccccc21)C(=O)N[C@@H](Cc1c[nH]c2ccccc12)C(=O)O
62 | – | – | – | CC[C@H](C)[C@H](NC(=O)CNC(=O)[C@H](C)NC(=O)[C@H](CC(C)C)NC(=O)[C@H](NC(C)=O)C1c2ccccc2CCc2ccccc21)C(=O)N[C@@H](Cc1c[nH]c2ccccc12)C(=O)O
– | 350 | – | – | CC[C@H](C)[C@H](NC(=O)CNC(=O)[C@@H](NC(=O)[C@H](CC(C)C)NC(=O)[C@H](NC(C)=O)C1c2ccccc2CCc2ccccc21)[C@@H](C)O)C(=O)N[C@@H](Cc1c[nH]c2ccccc12)C(=O)O
– | 380 | – | – | CC[C@H](C)[C@H](NC(=O)CNC(=O)[C@H](CO)NC(=O)[C@H](CC(C)C)NC(=O)[C@H](NC(C)=O)C1c2ccccc2CCc2ccccc21)C(=O)N[C@@H](Cc1c[nH]c2ccccc12)C(=O)O
88 | 48 | – | – | CC[C@H](C)[C@H](NC(=O)CNC(=O)[C@H](CCC(=O)O)NC(=O)[C@H](CC(C)C)NC(=O)[C@H](NC(C)=O)C1c2ccccc2CCc2ccccc21)C(=O)N[C@@H](Cc1c[nH]c2ccccc12)C(=O)O
